This series can be described thus: solvent given as SMILES.

These results are taken from the Deep4Chem optical property database.

As to `CN(c1ccccc1)c1ccc(N(c2ccccc2)c2ccc3ccc4c(N(c5ccccc5)c5ccc(N(C)c6ccccc6)cc5)ccc5ccc2c3c54)cc1`, the absorption maximum (in ClCCl) is 435 nm.

As to `N#Cc1ccc(N2c3ccccc3C(c3ccccc3)(c3ccccc3)c3ccccc32)cc1`, under “in Cc1ccccc1”, the absorption maximum is on record as 352 nm.

For the setting “in ClCCl”, `O=Cc1ccc2c(c1)c1ccccc1n2-c1ccc(-c2ccc(-n3c4ccccc4c4cc(C=O)ccc43)cc2)cc1` came in with an absorption maximum of 329 nm.

For the compound `Cc1nc2c(ccc3c2sc(/C=C/c2ccc(N(C)C)cc2)[n+]3C)s1`, the absorption maximum reads like this: (in CO) 534 nm; (in ClC(Cl)Cl) 557 nm.

As to `CCCCCCCCCCOc1cc(OCCCCCCCCCC)cc(C2=C3C(/C=C/c4ccc(OC)cc4)=C(C#Cc4ccc(C(C)(C)C)cc4)C(/C=C/c4ccc(OC)cc4)=[N+]3[B-](F)(F)n3c(/C=C/c4ccc(OC)cc4)c(C#Cc4ccc(C(C)(C)C)cc4)c(/C=C/c4ccc(OC)cc4)c32)c1`, the absorption maximum (in ClC(Cl)Cl) turned out to be 732 nm.

Under “in CO”, `c1ccc(N(c2ccccc2)c2ccc(-c3cnc(-c4ccc(N(c5ccccc5)c5ccccc5)cc4)s3)cc2)cc1` yielded an absorption maximum of 398 nm.

Where the note is “in O”, `CC[N+]1(CC)CN2C(=N1)C(C(=O)O)=Cc1ccc(OC)cc12` returned an absorption maximum of 372 nm.

The compound `CC1=NN(c2ccccc2)C(=O)/C1=C\c1cn(-c2ccccc2)nc1-c1ccc([N+](=O)[O-])cc1` yielded an absorption maximum (in C1CCOC1) of 343 nm; an absorption maximum (in C1COCCO1) of 361 nm; an absorption maximum (in CCO) of 362 nm; an absorption maximum (in CCOC(C)=O) of 359 nm; an absorption maximum (in CN(C)C=O) of 361 nm; an absorption maximum (in CO) of 360 nm. Further, the absorption maximum runs as follows: (in CS(C)=O) 364 nm; (in Cc1ccccc1) 364 nm; (in ClC(Cl)Cl) 363 nm.

For the compound `C(=C\c1ccc(Nc2ccccc2)cc1)/c1ccccc1`, the absorption maximum is 351 nm (in CC#N) and 346 nm (in CCCCCC).

In turn, `O=C1OC(c2ccccc2)=N/C1=C\c1ccccc1` gave an absorption maximum (in C1COCCO1) of 363 nm.

For `CC1=[N+]2C(=C(c3ccc(-c4c5ccccc5c(-c5ccccc5)c5ccccc45)cc3)c3ccc(C)n3[B-]2(F)F)C=C1`, the absorption maximum runs as follows: (in CC#N) 508 nm; (in CCCCCC) 512 nm; (in CCO) 511 nm; (in CN(C)C=O) 512 nm; (in Cc1ccccc1) 516 nm; (in ClCCl) 513 nm.

On to `Oc1ccc2ccccc2c1/C=N/C1CCCCC1/N=C/c1c(O)ccc2ccccc12` (centres undefined), for which the absorption maximum (in CC#N) was determined as 397 nm.

Consider `CC(C)(C)NC(=O)c1ccc(-c2cc3ccccc3o2)c2ccc3c4ccccc4c4ccccc4c3c12`, for which the absorption maximum (in ClCCl) amounted to 364 nm.

Compound `CC(C)(C)c1ccc2c(c1)c1cc(C(C)(C)C)cc3c1n2-c1cc(-c2ccccc2F)cc2c1B3c1cc(C(C)(C)C)cc3c4cc(C(C)(C)C)ccc4n-2c13` returned an absorption maximum (in Cc1ccccc1) of 471.56 nm.

`c1ccc2c(c1)ccc1ccc3ccc4ccccc4c3c12` yielded an absorption maximum (in ClC(Cl)Cl) of 393 nm.

Under “in ClCCl”, `CC(C)(C)c1cc2ccc3c(N(c4ccccc4)c4ccccc4)cc(N(c4ccccc4)c4ccccc4)c4ccc(c1)c2c34` displayed an absorption maximum of 414 nm.

For `c1ccc(-c2cc(-c3ccc4ccc5cccc6ccc3c4c56)ccn2)nc1`, the absorption maximum is listed as 344 nm (in C1CCOC1); 342.99 nm (in CC#N); 342.99 nm (in CCC#N); 344 nm (in CCCC#N); 342 nm (in CCCCCC); 342.99 nm (in CCCO). This compound registered an absorption maximum (in CCO) of 342.99 nm, an absorption maximum (in CO) of 342.99 nm and an absorption maximum (in Cc1ccccc1) of 342.99 nm.

Under “in CO”, `CC1(C)C(/C=C/C2=C(c3ccc(C(=O)O)cc3)C(=C/C=C3/N(CCCCS(=O)(=O)[O-])c4ccccc4C3(C)C)/CC2)=[N+](CCCCS(=O)(=O)[O-])c2ccccc21` gave an absorption maximum of 797 nm.

On to `COc1ccc(-n2nc(C(=O)c3ccc(Cl)cc3)c(N3CCCC3)n2)cc1`, for which, for the setting “in CC#N”, the absorption maximum came out at 381 nm.

With `CCCCCCCCOc1ccc(-c2c3c4n(c(-c5ccc(OCCCCCCCC)cc5)c3c3n2[B-](F)(F)[n+]2c(ccc5cc(C(C)(C)C)ccc52)C=3C#N)[B-](F)(F)[n+]2c(ccc3cc(C(C)(C)C)ccc32)C=4C#N)cc1`, the absorption maximum (in ClC(Cl)Cl) came to 754 nm.

For the setting “in O”, `COc1cc(-c2cc(N3CCCCC3)c(C#N)c3c2-c2cccc4cccc-3c24)cc(OC)c1OC` showed an absorption maximum of 430 nm.

Consider `CCCn1c(=O)c(/C=C/c2nc3ccc(C)cc3n(CCC)c2=O)nc2ccc(C)cc21`, for which the absorption maximum is, setting by setting: (in C1COCCO1) 434 nm; (in CC#N) 431 nm; (in ClCCl) 434 nm.

With `O=C1/C(=C2\Sc3ccccc3C2=O)Sc2ccccc21`, the absorption maximum is given as 536 nm (in C1COCCO1); 543 nm (in CN(C)C=O); 538 nm (in CO); 545 nm (in CS(C)=O); 544 nm (in c1ccccc1).

Regarding `CCCCCCCCCCCCOc1cc2c(cc1OCCCCCCCCCCCC)C1=C3C(=O)N4C=Cc5cc(OCCCCCCCCCCCC)c(OCCCCCCCCCCCC)cc5C4=C3C(=O)N1C=C2`, the absorption maximum amounted to 592 nm (in CN(C)C=O) and 590 nm (in ClC(Cl)Cl).

In the case of `O=C1Nc2ccccc2/C1=C/C(=O)c1ccc(O)cc1`, the absorption maximum by setting is: (in C1CCCCC1) 333 nm; (in C1COCCO1) 334 nm; (in CC#N) 332 nm; (in CC(C)(C)O) 336 nm; (in CC(C)O) 338 nm; (in CCCCCC) 331 nm. Further, the absorption maximum by setting is: (in CCCCO) 337 nm; (in CCOC(C)=O) 334 nm; (in CN(C)C=O) 337 nm; (in CO) 336 nm; (in ClCCl) 336 nm; (in O) 338 nm.

Turning to `CC1=NN(c2ccccc2)C(=O)/C1=C/c1cn(-c2ccccc2)nc1-c1ccccc1`, the absorption maximum runs as follows: (in C1CCOC1) 365 nm; (in C1COCCO1) 366 nm; (in CCO) 367 nm; (in CCOC(C)=O) 364 nm; (in CN(C)C=O) 367 nm; (in CO) 364 nm. The absorption maximum came out at 370 nm (in CS(C)=O), 369 nm (in Cc1ccccc1), 368 nm (in ClC(Cl)Cl) and 368 nm (in ClCCl).

With `O=C1C2=C3c4sccc4C=CN3C(=O)C2=C2c3sccc3C=CN12`, the absorption maximum reads like this: (in CN(C)C=O) 605 nm; (in ClC(Cl)Cl) 605 nm.

Compound `FC(F)(F)c1ccc(-c2ncc3ccccn23)cc1` displayed an absorption maximum (in ClC(Cl)Cl) of 340 nm.

As for `c1ccc2c(c1)c1ccccc1n2-c1cc(-c2nc3ccccn3n2)cc(-n2c3ccccc3c3ccccc32)c1`, the absorption maximum (in Cc1ccccc1) is listed as 338 nm.

With `c1ccc(-c2ccc(-c3nc(-c4ccccc4)c(N(c4ccccc4)c4ccccc4)[se]3)cc2)cc1`, the absorption maximum (in ClC(Cl)Cl) is 394 nm.

`CCC1=C(C2=C(C3=C(CC)S(=O)(=O)c4ccccc43)C(F)(F)C(F)(F)C2(F)F)c2ccccc2S1(=O)=O` gave an absorption maximum (in C1COCCO1) of 310 nm.

In turn, `O=P(c1ccccc1)(c1ccccc1)c1ccc(-n2c(-c3ccccc3P(=O)(c3ccccc3)c3ccccc3)nc3ccccc32)cc1` gave an absorption maximum (in ClCCl) of 300 nm.

`CCOC(=O)CSc1nc(C)c(CC)c(C#N)c1C#N`: for the setting “in c1ccccc1”, the absorption maximum is 357 nm.
